Consider 4 molecules from paper PMC8550792, “Evolution of kinase polypharmacology across HSP90 drug discovery” (Cell Chemical Biology, 2021).

What all share (assay): biochemical
Holding throughout (assay type): biochemical

Experiment [1] deals with T1, 382 unique human kinases (Homo sapiens, UniProt P10398).
T1 construct: purchased Reaction Biology (HotSpot contract assay)
T1 sequence (P10398 1-606): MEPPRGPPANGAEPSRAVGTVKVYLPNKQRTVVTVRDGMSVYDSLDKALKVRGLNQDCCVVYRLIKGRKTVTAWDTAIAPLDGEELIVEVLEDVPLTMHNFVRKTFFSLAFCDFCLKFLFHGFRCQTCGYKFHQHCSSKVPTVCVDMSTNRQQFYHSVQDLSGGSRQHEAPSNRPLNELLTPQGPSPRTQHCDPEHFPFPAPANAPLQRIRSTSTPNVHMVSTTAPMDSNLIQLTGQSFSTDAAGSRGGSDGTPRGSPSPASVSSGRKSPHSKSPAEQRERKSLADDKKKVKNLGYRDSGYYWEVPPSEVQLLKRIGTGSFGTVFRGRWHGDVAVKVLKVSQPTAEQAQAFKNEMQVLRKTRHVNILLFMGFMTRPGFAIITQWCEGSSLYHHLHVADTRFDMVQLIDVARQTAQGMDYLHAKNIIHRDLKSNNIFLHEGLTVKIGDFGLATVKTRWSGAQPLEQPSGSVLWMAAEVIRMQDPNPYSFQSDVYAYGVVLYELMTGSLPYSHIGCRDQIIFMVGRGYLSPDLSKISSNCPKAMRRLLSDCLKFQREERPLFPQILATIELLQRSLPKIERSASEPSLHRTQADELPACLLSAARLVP
The conditions noted are these: compound at 10 uM, duplicate values.

Experiment [2] deals with T2, 382 unique human kinases (Homo sapiens, UniProt O60674, V617F).
T2 construct: purchased Reaction Biology (HotSpot contract assay)
The conditions noted are these: kinase JAK2 (V617F), compound 10 uM; for remaining activity at 10 µM: read-out: % Enzyme Activity (relative to DMSO controls).

Experiment [3] has as its target T3, 382 unique human kinases (Homo sapiens, UniProt O00418).
T3 construct: purchased Reaction Biology (HotSpot contract assay)
T3 sequence (O00418 1-725): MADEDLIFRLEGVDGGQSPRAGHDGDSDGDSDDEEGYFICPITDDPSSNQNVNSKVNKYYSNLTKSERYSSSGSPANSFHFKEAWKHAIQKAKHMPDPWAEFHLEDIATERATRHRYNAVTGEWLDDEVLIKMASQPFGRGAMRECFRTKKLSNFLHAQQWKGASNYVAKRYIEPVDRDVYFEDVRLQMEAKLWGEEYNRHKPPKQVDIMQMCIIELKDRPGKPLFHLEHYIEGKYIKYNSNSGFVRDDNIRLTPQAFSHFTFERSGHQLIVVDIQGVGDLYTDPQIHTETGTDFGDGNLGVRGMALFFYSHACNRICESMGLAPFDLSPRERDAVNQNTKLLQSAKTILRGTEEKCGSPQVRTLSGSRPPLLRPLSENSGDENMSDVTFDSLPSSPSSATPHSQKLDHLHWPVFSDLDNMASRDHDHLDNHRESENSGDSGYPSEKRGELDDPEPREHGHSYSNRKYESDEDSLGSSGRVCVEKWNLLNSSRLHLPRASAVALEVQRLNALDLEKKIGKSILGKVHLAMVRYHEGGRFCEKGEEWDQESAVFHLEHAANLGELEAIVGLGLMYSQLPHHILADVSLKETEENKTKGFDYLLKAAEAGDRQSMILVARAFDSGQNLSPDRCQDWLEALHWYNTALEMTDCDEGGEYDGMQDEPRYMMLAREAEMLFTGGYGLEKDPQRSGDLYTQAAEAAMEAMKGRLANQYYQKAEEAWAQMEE
The conditions noted are these: kinase EEF2K, compound 10 uM; for remaining activity at 10 µM: read-out: % Enzyme Activity (relative to DMSO controls).

Experiment [4] concerns the target T4, 382 unique human kinases (Homo sapiens, UniProt Q7KZI7).
T4 construct: purchased Reaction Biology (HotSpot contract assay)
As to conditions: MARK2/PAR-1Ba, 10 uM; for remaining activity at 10 µM: read-out: % Enzyme Activity (relative to DMSO controls).

The target in experiment [5] is T5, 382 unique human kinases (Homo sapiens, UniProt P07949, R749T).
T5 construct: purchased Reaction Biology (HotSpot contract assay)
As to conditions: RET (R749T), 10 uM; for remaining activity at 10 µM: read-out: % Enzyme Activity (relative to DMSO controls).

Experiment [6] deals with T6, 382 unique human kinases (Homo sapiens, UniProt P06241).
T6 construct: purchased Reaction Biology (HotSpot contract assay)
The conditions noted are these: FYN, [ATP] 30 µM.

The target in experiment [7] is T7, 382 unique human kinases (Homo sapiens, UniProt Q6VAB6, R676S).
T7 construct: purchased Reaction Biology (HotSpot contract assay)
T7 sequence (Q6VAB6 1-950 R676S): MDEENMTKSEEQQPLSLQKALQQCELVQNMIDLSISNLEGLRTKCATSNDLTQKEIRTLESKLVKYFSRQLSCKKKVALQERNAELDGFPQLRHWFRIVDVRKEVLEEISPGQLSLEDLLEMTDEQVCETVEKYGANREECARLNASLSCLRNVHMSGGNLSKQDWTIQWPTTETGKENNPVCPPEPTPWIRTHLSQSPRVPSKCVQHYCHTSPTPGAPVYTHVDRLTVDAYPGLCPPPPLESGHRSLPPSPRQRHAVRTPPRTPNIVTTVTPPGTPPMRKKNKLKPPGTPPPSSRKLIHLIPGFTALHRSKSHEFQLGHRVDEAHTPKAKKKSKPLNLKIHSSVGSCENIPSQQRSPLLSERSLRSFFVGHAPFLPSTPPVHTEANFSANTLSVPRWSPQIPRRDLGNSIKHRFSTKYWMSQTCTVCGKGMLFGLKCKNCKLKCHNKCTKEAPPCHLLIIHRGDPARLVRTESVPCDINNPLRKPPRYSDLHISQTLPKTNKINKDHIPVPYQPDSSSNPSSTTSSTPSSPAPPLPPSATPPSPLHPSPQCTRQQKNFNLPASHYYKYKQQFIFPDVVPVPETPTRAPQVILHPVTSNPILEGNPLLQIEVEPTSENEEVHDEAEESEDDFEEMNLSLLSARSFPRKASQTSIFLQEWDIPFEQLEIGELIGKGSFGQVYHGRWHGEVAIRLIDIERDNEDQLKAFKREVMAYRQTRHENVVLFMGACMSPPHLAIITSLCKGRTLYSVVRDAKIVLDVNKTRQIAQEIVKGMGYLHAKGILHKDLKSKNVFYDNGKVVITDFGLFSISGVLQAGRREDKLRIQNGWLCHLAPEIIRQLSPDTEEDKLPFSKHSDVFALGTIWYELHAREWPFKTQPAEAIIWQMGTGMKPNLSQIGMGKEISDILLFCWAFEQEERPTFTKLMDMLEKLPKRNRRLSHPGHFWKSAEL
As to conditions: KSR2 (R676S), 10 uM; for remaining activity at 10 µM: read-out: % Enzyme Activity (relative to DMSO controls).

The target in experiment [8] is T8, 382 unique human kinases (Homo sapiens, UniProt P78368).
T8 construct: purchased Reaction Biology (HotSpot contract assay)
As to conditions: CK1g2, 10 uM; for remaining activity at 10 µM: read-out: % Enzyme Activity (relative to DMSO controls).

For experiment [9], the target named is T9, 382 unique human kinases (Homo sapiens, UniProt P12931).
T9 construct: purchased Reaction Biology (HotSpot contract assay)
The conditions noted are these: c-Src, [ATP] 15 µM.

Where [10] appears, read: compound 1 uM, read-out: % Enzyme Activity (relative to DMSO controls).
[11] abbreviates: compound 10 uM, read-out: % Enzyme Activity (relative to DMSO controls).

Molecules are shown by their SMILES. Like-named read-outs stand apart in the source and are kept apart here.

T8 sequence (P78368 whole entry): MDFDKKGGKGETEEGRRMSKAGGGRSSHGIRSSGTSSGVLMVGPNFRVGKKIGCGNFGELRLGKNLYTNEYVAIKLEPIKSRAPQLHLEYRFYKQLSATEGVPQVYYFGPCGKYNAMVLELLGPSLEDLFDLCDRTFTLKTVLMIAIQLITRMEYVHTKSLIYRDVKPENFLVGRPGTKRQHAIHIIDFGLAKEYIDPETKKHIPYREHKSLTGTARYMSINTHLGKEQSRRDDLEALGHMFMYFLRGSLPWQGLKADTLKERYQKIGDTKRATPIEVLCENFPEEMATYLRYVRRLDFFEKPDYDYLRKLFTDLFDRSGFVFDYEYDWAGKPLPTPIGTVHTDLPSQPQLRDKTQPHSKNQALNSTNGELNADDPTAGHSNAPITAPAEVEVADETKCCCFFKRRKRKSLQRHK
T6 sequence (P06241 whole entry): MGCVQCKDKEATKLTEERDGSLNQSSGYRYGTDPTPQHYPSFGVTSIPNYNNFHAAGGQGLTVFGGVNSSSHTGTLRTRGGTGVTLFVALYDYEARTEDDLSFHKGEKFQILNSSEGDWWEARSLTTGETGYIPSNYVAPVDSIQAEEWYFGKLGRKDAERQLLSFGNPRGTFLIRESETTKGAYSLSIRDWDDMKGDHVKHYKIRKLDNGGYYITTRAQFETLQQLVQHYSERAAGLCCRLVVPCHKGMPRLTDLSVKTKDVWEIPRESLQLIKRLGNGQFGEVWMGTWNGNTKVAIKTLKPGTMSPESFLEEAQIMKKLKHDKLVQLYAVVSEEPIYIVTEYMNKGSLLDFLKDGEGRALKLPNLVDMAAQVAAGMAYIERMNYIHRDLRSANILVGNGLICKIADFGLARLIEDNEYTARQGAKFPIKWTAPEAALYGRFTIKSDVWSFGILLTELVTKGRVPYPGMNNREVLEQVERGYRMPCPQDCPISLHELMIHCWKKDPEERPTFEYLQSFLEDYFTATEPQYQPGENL
T4 sequence (Q7KZI7 whole entry): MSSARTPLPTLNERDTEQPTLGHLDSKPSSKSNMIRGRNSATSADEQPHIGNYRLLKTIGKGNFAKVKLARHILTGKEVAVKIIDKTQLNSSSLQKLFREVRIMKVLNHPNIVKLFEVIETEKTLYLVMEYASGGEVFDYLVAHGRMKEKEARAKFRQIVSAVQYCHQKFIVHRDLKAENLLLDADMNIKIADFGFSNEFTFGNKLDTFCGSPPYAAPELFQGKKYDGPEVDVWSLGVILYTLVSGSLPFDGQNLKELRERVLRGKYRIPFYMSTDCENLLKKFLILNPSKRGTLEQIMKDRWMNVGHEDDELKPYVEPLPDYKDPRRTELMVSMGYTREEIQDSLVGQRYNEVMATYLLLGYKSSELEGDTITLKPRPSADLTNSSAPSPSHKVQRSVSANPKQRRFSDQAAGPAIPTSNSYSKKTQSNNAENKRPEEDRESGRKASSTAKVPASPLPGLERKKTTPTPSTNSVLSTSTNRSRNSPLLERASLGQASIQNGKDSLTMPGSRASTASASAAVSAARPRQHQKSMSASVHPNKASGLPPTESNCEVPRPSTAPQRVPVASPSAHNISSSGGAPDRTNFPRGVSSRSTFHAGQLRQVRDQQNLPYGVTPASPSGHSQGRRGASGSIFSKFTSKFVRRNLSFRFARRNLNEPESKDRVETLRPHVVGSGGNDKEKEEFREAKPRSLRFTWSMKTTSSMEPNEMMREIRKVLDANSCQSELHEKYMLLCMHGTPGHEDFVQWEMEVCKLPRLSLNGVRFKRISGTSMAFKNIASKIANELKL
T9 sequence (P12931 whole entry): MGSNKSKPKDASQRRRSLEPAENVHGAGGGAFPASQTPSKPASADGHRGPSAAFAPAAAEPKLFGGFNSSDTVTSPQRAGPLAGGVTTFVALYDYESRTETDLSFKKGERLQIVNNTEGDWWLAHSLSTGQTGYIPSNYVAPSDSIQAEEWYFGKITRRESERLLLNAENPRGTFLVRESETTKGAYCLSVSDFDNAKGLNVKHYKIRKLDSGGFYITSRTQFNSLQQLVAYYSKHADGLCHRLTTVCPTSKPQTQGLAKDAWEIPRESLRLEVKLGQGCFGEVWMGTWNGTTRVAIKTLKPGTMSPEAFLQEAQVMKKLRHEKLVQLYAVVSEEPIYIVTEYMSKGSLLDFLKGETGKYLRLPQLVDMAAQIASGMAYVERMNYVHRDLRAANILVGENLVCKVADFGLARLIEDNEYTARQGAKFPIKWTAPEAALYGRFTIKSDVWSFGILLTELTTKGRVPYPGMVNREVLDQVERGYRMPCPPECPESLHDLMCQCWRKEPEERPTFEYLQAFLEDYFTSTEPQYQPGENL
T2 sequence (O60674 whole entry V617F): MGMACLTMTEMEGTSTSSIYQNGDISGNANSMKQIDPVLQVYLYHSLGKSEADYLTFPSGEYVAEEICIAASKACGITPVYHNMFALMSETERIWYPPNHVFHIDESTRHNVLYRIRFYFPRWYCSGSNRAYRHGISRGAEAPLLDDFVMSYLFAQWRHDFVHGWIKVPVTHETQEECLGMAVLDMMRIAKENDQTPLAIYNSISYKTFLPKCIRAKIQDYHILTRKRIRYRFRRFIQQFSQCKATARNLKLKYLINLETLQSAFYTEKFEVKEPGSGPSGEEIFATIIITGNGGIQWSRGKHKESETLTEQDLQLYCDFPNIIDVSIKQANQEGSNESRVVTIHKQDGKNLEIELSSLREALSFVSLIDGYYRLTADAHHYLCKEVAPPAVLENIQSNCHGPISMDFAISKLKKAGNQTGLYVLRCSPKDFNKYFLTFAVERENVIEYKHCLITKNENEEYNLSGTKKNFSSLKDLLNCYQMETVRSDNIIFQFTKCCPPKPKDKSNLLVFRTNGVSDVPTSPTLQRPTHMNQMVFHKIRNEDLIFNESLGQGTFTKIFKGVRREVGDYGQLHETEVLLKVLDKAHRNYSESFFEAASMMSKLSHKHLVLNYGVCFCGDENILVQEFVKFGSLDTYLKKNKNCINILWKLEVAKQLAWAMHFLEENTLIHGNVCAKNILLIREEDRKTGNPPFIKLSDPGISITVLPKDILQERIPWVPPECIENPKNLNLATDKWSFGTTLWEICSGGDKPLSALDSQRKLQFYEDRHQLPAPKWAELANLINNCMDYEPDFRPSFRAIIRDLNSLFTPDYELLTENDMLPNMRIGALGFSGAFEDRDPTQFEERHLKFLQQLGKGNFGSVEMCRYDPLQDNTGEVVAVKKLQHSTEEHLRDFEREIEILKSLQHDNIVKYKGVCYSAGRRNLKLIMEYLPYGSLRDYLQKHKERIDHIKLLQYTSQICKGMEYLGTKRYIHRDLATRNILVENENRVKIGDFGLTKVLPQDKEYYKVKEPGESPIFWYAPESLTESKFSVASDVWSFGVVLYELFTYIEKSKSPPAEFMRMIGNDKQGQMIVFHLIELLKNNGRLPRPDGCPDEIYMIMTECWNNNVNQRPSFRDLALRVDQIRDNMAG
T5 sequence (P07949 29-1114 R749T): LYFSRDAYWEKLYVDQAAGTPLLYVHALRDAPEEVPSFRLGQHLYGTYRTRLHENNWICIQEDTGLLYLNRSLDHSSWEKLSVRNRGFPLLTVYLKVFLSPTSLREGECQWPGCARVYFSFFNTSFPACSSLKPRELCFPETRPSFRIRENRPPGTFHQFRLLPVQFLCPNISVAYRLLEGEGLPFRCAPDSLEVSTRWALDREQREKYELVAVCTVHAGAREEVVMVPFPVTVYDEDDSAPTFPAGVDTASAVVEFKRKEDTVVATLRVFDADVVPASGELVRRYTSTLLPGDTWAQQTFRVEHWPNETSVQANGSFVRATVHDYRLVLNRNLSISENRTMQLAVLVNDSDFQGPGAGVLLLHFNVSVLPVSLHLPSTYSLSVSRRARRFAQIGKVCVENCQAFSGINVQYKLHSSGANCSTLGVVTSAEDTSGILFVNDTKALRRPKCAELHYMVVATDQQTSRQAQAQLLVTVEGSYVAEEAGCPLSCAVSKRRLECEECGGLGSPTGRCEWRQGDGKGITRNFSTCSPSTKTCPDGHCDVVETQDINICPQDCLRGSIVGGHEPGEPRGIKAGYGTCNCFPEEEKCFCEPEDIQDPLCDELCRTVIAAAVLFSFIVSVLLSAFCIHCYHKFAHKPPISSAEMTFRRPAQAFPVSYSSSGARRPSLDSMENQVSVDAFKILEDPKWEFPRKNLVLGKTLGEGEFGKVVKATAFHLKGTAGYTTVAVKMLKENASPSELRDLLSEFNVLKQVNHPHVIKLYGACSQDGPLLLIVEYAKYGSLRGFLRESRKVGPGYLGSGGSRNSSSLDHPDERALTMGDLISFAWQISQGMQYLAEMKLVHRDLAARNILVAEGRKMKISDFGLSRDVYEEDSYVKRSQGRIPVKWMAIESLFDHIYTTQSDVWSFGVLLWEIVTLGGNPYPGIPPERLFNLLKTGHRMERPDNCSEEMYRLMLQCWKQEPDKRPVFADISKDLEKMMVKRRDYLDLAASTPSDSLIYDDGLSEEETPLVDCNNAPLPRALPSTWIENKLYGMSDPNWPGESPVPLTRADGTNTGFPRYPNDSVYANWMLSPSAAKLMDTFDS

On to `CC(C)c1cc(-c2n[nH]c(=O)n2-c2ccc3c(ccn3C)c2)c(O)cc1O` [Ganetespib (STA9090)], for which the remaining activity at 10 µM was determined as 158% at 382 unique human kinases [1] (read-out: % Enzyme Activity (relative to DMSO controls), ARAF); 83.1% at 382 unique human kinases [2]; 89.2% on 382 unique human kinases [3]; 75.7% on 382 unique human kinases [4].

`CC(C)c1cc(-c2n[nH]c(=O)n2-c2ccc3c(ccn3C)c2)c(O)cc1O` [Ganetespib]: the remaining activity at 10 µM at 382 unique human kinases [5] worked out at 106%; at 382 unique human kinases [7], 93%; on 382 unique human kinases [8] it was 110%; on 382 unique human kinases [9] (setting [11]), 9.14%. Moreover, the remaining activity at 1 µM at 382 unique human kinases [6] (setting [10]) was 47.6%; at 382 unique human kinases [9] (setting [10]), 38.8%.

On to `CCNC(=O)c1noc(-c2cc(C(C)C)c(O)cc2O)c1-c1ccc(CN2CCOCC2)cc1` [Luminespib (AUY-922)], for which the “% Enzyme Activity (relative to DMSO controls)” value on 382 unique human kinases [1] (ARAF) is on record as 107.23%; at 382 unique human kinases [2], 91.38%; on 382 unique human kinases [3], 102.88%; at 382 unique human kinases [4] it was 102.26%. Moreover, the remaining activity at 10 µM at 382 unique human kinases [1] (ARAF, read-out: % Enzyme Activity (relative to DMSO controls)) turned out to be 107%; at 382 unique human kinases [2], 91.7%; on 382 unique human kinases [3], 105%; at 382 unique human kinases [4], 104%.

Consider `CCNC(=O)c1noc(-c2cc(C(C)C)c(O)cc2O)c1-c1ccc(CN2CCOCC2)cc1` [Luminespib], for which the “% Enzyme Activity (relative to DMSO controls)” value was found to be 97.79% on 382 unique human kinases [5]; 65.29% at 382 unique human kinases [6] (compound 10 uM); 96.29% at 382 unique human kinases [7]; 97.43% at 382 unique human kinases [8]; 33.43% at 382 unique human kinases [9] (compound 10 uM). The remaining activity at 10 µM turned out to be 98.4% at 382 unique human kinases [5]; 65.6% on 382 unique human kinases [6] (setting [11]); 96.8% at 382 unique human kinases [7]; 99.4% on 382 unique human kinases [8]; 36.4% on 382 unique human kinases [9] (setting [11]).
